Measurements as given in patent US10570155B2, “Imidazooxazole derivative having antitumor effect, and pharmaceutical composition including same” (KOREA INSTITUTE OF SCIENCE AND TECHNOLOGY, priority 2016, dated 2020).
Like-named read-outs stand apart in the source and are kept apart here. Blank lines part the entries; values can stand above or below the molecule they belong to.

Key:
A375 = assay: NCI cancer cell line panel screening (SRB), melanoma cell line A375; assay type: cell-based; conditions: Homo sapiens, A-375, read-out: IC50 against melanoma cell line in vitro
Protocol: (§1) According to the standard protocol (http://dtp.nci.nih.gov/dtpstandard/dwindex/index.isp) of the US National Cancer Institute (NCI) (www.dtp.nci.nih.gov), screening of a cancer cell line panel was performed. Briefly, human cell lines were allowed to grow in an RPMI 1640 medium containing 5% FBS and 2 mM L-glutamine. For a general screening experiment, cells were inoculated in 96-well microtiter plates in 100 μl at a plating density ranging from 5000 cells/well to 40,000 cells/well depending on the doubling time of individual cell lines. After cell inoculation, the microtiter plates were incubated at 37° C., 5% CO2, 95% air, and 100% relative humidity for 24 hours prior to addition of test compounds. 24 hours later, two plates of each cell line were fixed in situ with trichloroacetic acid (TCA) to measure the cell population for each cell line at the time of test compound addition (Tz). Test compounds were solubilized in dimethyl sulfoxide at 400-fold the intended final maximum test concentration, and stored frozen prior to use. At the time of compound addition, an aliquot of frozen concentrate was thawed and diluted to twice the intended final maximum test concentration with a complete medium containing 50 μg/ml of gentamicin. Additional four concentration of 10-fold or ½ log serial dilutions were made to provide a total of five compound concentrations plus control. Aliquots of 100 μl of these different compound dilutions were added to appropriate microtiter wells already containing 100 μl of medium, resulting in the required final compound concentrations.
(§2) Following compound addition, the plates were incubated for additional 48 hours at 37° C., 5% CO2, 95% air, and 100% relative humidity. For adherent cells, the assay was terminated by the addition of cold TCA. Cells were fixed in situ by the gentle addition of 50 μl of cold 50% (w/v) TCA (final concentration, 10% TAC) and incubated at 4° C. for 60 minutes. The supernatant was discarded, and the plates were washed five times with tap water and air-dried. A sulforhodamine B (SRB) solution (100 μl) at 0.4% (w/v) in 1% acetic acid was added to each well, and plates were incubated at room temperature for 10 minutes. After staining, unbound dye was removed by washing five times with 1% acetic acid and the plates were air-dried. Bound stain was subsequently solubilized with 10 mM Trizma base, and the absorbance was read on an automated plate reader at a wavelength of 515 nm. For suspension cells, the methodology was the same except that the assay was terminated by fixing settled cells at the bottom of the wells by gently adding 50 μl of 80% TCA (final concentration, 16% TCA). Using the seven absorbance measurements [time zero (Tz), control growth (C), and test growth rate in the presence of compound at the five concentration levels (Ti)], the growth percentage was calculated at each of the compound concentration levels. Growth inhibition percentage was calculated as follows: [(Ti−Tz)/(C−Tz)]×100 for concentrations for which Ti>/=Tz [(Ti−Tz)/Tz]×100 for concentrations for which Ti<Tz.

UACC-62 = assay: NCI cancer cell line panel screening (SRB), melanoma cell line UACC-62; assay type: cell-based; conditions: Homo sapiens, read-out: IC50 against melanoma cell line in vitro
Protocol: as §1, §2

LOX IMVI = assay: NCI cancer cell line panel screening (SRB), melanoma cell line LOX IMVI; assay type: cell-based, human; conditions: read-out: IC50 against melanoma cell line in vitro
Protocol: as §1, with “Briefly, human cell lines were allowed to grow in an RPMI 1640 medium containing 5% FBS and 2 mM L-glutamine.” left out
as §2, with “Bound stain was subsequently solubilized with 10 mM Trizma base, and the absorbance was read on an automated plate reader at a wavelength of 515 nm.” left out

MDA-MB-435 = assay: NCI cancer cell line panel screening (SRB), melanoma cell line MDA-MB-435; assay type: cell-based; conditions: Homo sapiens, read-out: IC50 against melanoma cell line in vitro
Protocol: as §1, §2

SK-MEL-5 = assay: NCI cancer cell line panel screening (SRB), melanoma cell line SK-MEL-5; assay type: cell-based, human; conditions: read-out: IC50 against melanoma cell line in vitro
Protocol: as §1, with “Briefly, human cell lines were allowed to grow in an RPMI 1640 medium containing 5% FBS and 2 mM L-glutamine.” left out
as §2, with “Bound stain was subsequently solubilized with 10 mM Trizma base, and the absorbance was read on an automated plate reader at a wavelength of 515 nm.” left out

M14 = assay: NCI cancer cell line panel screening (SRB), melanoma cell line M14; assay type: cell-based; conditions: Homo sapiens, read-out: IC50 against melanoma cell line in vitro
Protocol: as §1, §2

SK-MEL-2 = assay: NCI cancer cell line panel screening (SRB), melanoma cell line SK-MEL-2; assay type: cell-based, human; conditions: read-out: IC50 against melanoma cell line in vitro
Protocol: as §1, with “Briefly, human cell lines were allowed to grow in an RPMI 1640 medium containing 5% FBS and 2 mM L-glutamine.” left out
as §2, with “Bound stain was subsequently solubilized with 10 mM Trizma base, and the absorbance was read on an automated plate reader at a wavelength of 515 nm.” left out

SK-MEL-28 = assay: NCI cancer cell line panel screening (SRB), melanoma cell line SK-MEL-28; assay type: cell-based, human; conditions: read-out: IC50 against melanoma cell line in vitro
Protocol: as §1, with “Briefly, human cell lines were allowed to grow in an RPMI 1640 medium containing 5% FBS and 2 mM L-glutamine.” left out
as §2, with “Bound stain was subsequently solubilized with 10 mM Trizma base, and the absorbance was read on an automated plate reader at a wavelength of 515 nm.” left out

A375P cell line = assay: Inhibitory activity against proliferation of A375P melanoma cell line (MTT assay); assay type: cell-based; conditions: Homo sapiens
Protocol: To examine whether the compounds (2II, 9II, 10II, and 12II to 15II) of the present disclosure have remarkable effects, as compared with imidazothiazole-based compounds previously disclosed by the present inventors (M. S. Abdel-Maksoud et al./European Journal of Medicinal Chemistry 95 (2015) 453-463), inhibitory activities thereof against proliferation of A375P cell line which is a melanoma cell line were compared by the following experiments.
A375P cell line purchased from ATCC was cultured in a DMEM medium [containing 10% FBS and 1% penicillin/streptomycin] under 5% CO2 at 37° C. The cultured A375P cell line was collected using 0.05% trypsin-0.02% EDTA, and inoculated at a cell density of 5×10^3 cells per well in a 96-well plate. To measure cell viability, MTT [3-(4,5-dimethylthiazol-2-yl)-2,5-diphenyltetrazolium bromide] assay (CellTiter 96 Assay, Promega) was performed as follows. MTT assay was performed in accordance with the guidelines of CellTiter 96® (Promega).

B-RAF = B-RAF (Homo sapiens (Human), UniProt P15056); assay: Protein kinase enzymatic activity (Reaction Biology kinase hotspot, 33P-ATP); assay type: biochemical; conditions: read-out: Inhibitory effect against kinase activity, B-RAF (IC50)
B-RAF, sequence (P15056 whole entry): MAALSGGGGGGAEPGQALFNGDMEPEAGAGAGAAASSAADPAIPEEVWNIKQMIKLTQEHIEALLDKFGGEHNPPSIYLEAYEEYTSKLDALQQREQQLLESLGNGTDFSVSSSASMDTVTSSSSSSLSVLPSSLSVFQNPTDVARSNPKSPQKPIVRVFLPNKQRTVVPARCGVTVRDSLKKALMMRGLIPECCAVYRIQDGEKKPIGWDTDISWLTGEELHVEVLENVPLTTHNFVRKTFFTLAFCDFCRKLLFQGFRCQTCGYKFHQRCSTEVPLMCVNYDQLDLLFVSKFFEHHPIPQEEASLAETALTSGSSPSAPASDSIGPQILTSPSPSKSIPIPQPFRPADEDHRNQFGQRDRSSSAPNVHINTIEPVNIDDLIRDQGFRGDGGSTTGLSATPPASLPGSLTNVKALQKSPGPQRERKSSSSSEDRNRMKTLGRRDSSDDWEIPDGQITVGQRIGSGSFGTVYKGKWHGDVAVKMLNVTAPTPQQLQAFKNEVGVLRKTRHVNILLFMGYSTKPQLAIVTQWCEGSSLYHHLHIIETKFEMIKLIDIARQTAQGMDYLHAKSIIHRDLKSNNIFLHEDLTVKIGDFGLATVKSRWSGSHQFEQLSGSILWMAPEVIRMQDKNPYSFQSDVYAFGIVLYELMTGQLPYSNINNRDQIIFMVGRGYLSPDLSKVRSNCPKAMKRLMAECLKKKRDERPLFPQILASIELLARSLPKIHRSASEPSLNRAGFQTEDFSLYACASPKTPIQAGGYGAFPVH
Protocol: (§3) Reaction biology kinase hotspot service (http://www.reactionbiology.com) was used to measure IC50. In a final reaction volume of 25 μL, kinase (5 mU to 10 mU) was incubated with 25 mM Tris (pH 7.5), 0.02 mM EGTA, 0.66 mg/ml of myelin basic protein, 10 mM magnesium acetate, and [^33P-ATP] (specific activity of about 500 CPM/pmol, concentration as required). The reaction was initiated by addition of Mg-ATP mix. After incubation for 40 min at room temperature, the reaction was stopped by addition of 5 μl of a 3% phosphoric acid solution. 10 μL of the reaction was then spotted onto a P30 filtermat and washed three times for 5 minutes in 75 mM phosphoric acid and once in methanol prior to drying and scintillation counting.

V600E-B-RAF = V600E-B-RAF (Homo sapiens (Human), UniProt P15056, V600E); assay: as above; assay type: biochemical; conditions: read-out: Inhibitory effect against kinase activity, V600E-B-RAF (IC50)
V600E-B-RAF, sequence (P15056 whole entry V600E): as the sequence (P15056 whole entry) above, with V600E counted along it
Protocol: as §3

Compound: CC1(C)CN(CCNc2nccc(-c3c(-c4cccc(O)c4)nc4occn34)n2)S(=O)(=O)N1 [5II, 2-(2-((4-(6-(3-Hydroxylphenyl)imidazo[2,1-b]oxazol-5-yl)pyrimidin-2-yl)amino)ethyl)-4,4-dimethyl-1,2,5-thiadiazolidine 1,1-dioxide]
- IC50 (A375): 870 nM
- IC50 (UACC-62): 90 nM
- IC50 (LOX IMVI; Homo sapiens): 2300 nM
- IC50 (MDA-MB-435): 740 nM
- IC50 (SK-MEL-5; Homo sapiens): 340 nM
- IC50 (M14): 320 nM
- IC50 (SK-MEL-2; Homo sapiens): 1600 nM
- IC50 (SK-MEL-28; Homo sapiens): 220 nM

Compound: CCN1CCN(CCNc2nccc(-c3c(-c4cccc(O)c4)nc4occn34)n2)S1(=O)=O [drawing 151]
- IC50 (A375P cell line): 190 nM

Compound: CN1CCN(CCNc2nccc(-c3c(-c4ccc(F)cc4)nc4sccn34)n2)S1(=O)=O [reference compound]
- IC50 (A375P cell line): 600 nM

Compound: COc1ccc(S(=O)(=O)NCCNc2nccc(-c3c(-c4ccccc4)nc4sccn34)n2)cc1 [2III, 4-Methoxy-N-(2-((4-(6-phenylimidazo[2,1-b]thiazol-5-yl)pyrimidin-2-yl)amino)ethyl)benzenesulfonamide]
- IC50 (UACC-62): 1170 nM
- IC50 (LOX IMVI; Homo sapiens): 3940 nM
- IC50 (B-RAF): 459 nM
- IC50 (V600E-B-RAF): 77 nM
- IC50 (MDA-MB-435): 1220 nM
- IC50 (SK-MEL-5; Homo sapiens): 1680 nM
- IC50 (M14): 2770 nM
- IC50 (SK-MEL-2; Homo sapiens): 4980 nM
- IC50 (SK-MEL-28; Homo sapiens): 5790 nM

Compound: CC(C)(C)OC(=O)N1CCN(CCNc2nccc(-c3c(-c4ccc(F)cc4)nc4sccn34)n2)S1(=O)=O [reference compound]
- IC50 (A375P cell line): > 10000 nM

Compound: COc1cccc(-c2nc3sccn3c2-c2ccnc(NCCNS(=O)(=O)c3ccc(C(F)(F)F)cc3)n2)c1 [8III, N-(2-((4-(6-(3-methoxyphenyl)imidazo[2,1-b]thiazol-5-yl)pyrimidin-2-yl)amino)ethyl)-4-(trifluoromethyl)benzenesulfonamide]
- IC50 (UACC-62): 480 nM
- IC50 (LOX IMVI): 3260 nM
- IC50 (B-RAF): 687 nM
- IC50 (V600E-B-RAF): 98 nM
- IC50 (SK-MEL-5): 1240 nM
- IC50 (SK-MEL-2): 3040 nM
- IC50 (SK-MEL-28): 3680 nM

Compound: CN1CCCN(CCNc2nccc(-c3c(-c4cccc(O)c4)nc4occn34)n2)S1(=O)=O [6II, 2-(2-((4-(6-(3-Hydroxylphenyl)imidazo[2,1-b]oxazol-5-yl)pyrimidin-2-yl)amino)ethyl)-6-methyl-1,2,6-thiadiazinane 1,1-dioxide]
- IC50 (A375): 470 nM
- IC50 (UACC-62): 58 nM
- IC50 (LOX IMVI; Homo sapiens): 4360 nM
- IC50 (MDA-MB-435): 490 nM
- IC50 (SK-MEL-5; Homo sapiens): 240 nM
- IC50 (M14): 160 nM
- IC50 (SK-MEL-2; Homo sapiens): 2280 nM
- IC50 (SK-MEL-28; Homo sapiens): 240 nM

Compound: O=S(=O)(NCCNc1nccc(-c2c(-c3cccc(O)c3)nc3sccn23)n1)c1ccc(F)cc1 [25III, 4-Fluoro-N-(2-((4-(6-(3-hydroxylphenyl)imidazo[2,1-b]thiazol-5-yl)pyrimidin-2-yl)amino)ethyl)benzenesulfonamide]
- IC50 (A375): 480 nM
- IC50 (UACC-62): 260 nM
- IC50 (LOX IMVI): 4110 nM
- IC50 (B-RAF): 5.7 nM
- IC50 (V600E-B-RAF): 1 nM
- IC50 (MDA-MB-435): 930 nM
- IC50 (SK-MEL-5): 1610 nM
- IC50 (M14): 560 nM
- IC50 (SK-MEL-2): 4490 nM
- IC50 (SK-MEL-28; Homo sapiens): 660 nM

Compound: O=S1(=O)N(CCNc2nccc(-c3c(-c4ccc(F)cc4)nc4sccn34)n2)CCN1Cc1ccccc1 [reference compound]
- IC50 (A375P cell line): > 10000 nM

Compound: CCN1CCN(CCNc2nccc(-c3c(-c4ccc(F)cc4)nc4sccn34)n2)S1(=O)=O [reference compound]
- IC50 (A375P cell line): 380 nM

Compound: O=S1(=O)NCCCN1CCNc1nccc(-c2c(-c3cccc(O)c3)nc3occn23)n1 [8II, 2-(2-((4-(6-(3-Hydroxylphenyl)imidazo[2,1-b]oxazol-5-yl)pyrimidin-2-yl)amino)ethyl)-1,2,6-thiadiazinane 1,1-dioxide]
- IC50 (A375): 58 nM
- IC50 (UACC-62): 59 nM
- IC50 (LOX IMVI; Homo sapiens): 2150 nM
- IC50 (MDA-MB-435): 380 nM
- IC50 (SK-MEL-5; Homo sapiens): 170 nM
- IC50 (M14): 300 nM
- IC50 (SK-MEL-2; Homo sapiens): 380 nM
- IC50 (SK-MEL-28; Homo sapiens): 170 nM

Results, then the molecule that gave them:

- IC50 (A375P cell line): 470 nM
Compound: CN1CCCN(CCNc2nccc(-c3c(-c4cccc(O)c4)nc4sccn34)n2)S1(=O)=O

- IC50 (A375P cell line): 250 nM
Compound: O=S1(=O)N(CCNc2nccc(-c3c(-c4cccc(O)c4)nc4sccn34)n2)CCN1Cc1ccccc1

- IC50 (A375P cell line): 870 nM
Compound: CC1(C)CN(CCNc2nccc(-c3c(-c4cccc(O)c4)nc4sccn34)n2)S(=O)(=O)N1

- IC50 (A375P cell line): 60 nM
Compound: CN1CCN(CCNc2nccc(-c3c(-c4cccc(O)c4)nc4sccn34)n2)S1(=O)=O

- IC50 (A375P cell line): 720 nM
Compound: O=S1(=O)NCCCN1CCNc1nccc(-c2c(-c3cccc(O)c3)nc3sccn23)n1

- IC50 (A375P cell line): 1900 nM
Compound: O=S1(=O)NCCN1CCNc1nccc(-c2c(-c3ccc(F)cc3)nc3sccn23)n1 [reference compound]

- IC50 (A375P cell line): 630 nM
Compound: O=S1(=O)NCCN1CCNc1nccc(-c2c(-c3cccc(O)c3)nc3sccn23)n1

- IC50 (A375P cell line): 470 nM
Compound: CC(C)(C)OC(=O)N1CCCN(CCNc2nccc(-c3c(-c4cccc(O)c4)nc4sccn34)n2)S1(=O)=O
